Tested on: Staphylococcus aureus methicillin-resistant wild type T67738
Assay: Susceptibility test, microtiter broth dilution (MIC), resistant S. aureus
Format: cell-based
Details: in culture
Method: The strains were streaked on blood agar plates (trypticase soy broth containing 5% sheep cells). A single colony was isolated and grown in Mueller-Hinton Broth (MHB) as recommended by the national Committee for Clinical Laboratory Standards for rapidly growing bacteria. Candida species and related yeasts were isolated in a similar manner on brain-heart infusion agar (BHI).
The antibiotic susceptibility profile of each strain was determined using standard microtiter dilution plates obtained from the Clinical Microbiology Laboratory at Ohio State University Hospitals. The Inocula were prepared by suspending a 4 hour log phase growth in MHB visually equal in turbidity of an 0.5 McFarland standard. Inocula were further diluted and added to microdilution trays to achieve a final density of approximately 1×10^5 CFU/ml. The trays were incubated for 16 to 20 hours at 35° C. The highest dilution at which wells remained clear was considered to be the minimum inhibitory concentration (MIC).
The MIC and minimum bacterial concentration (MBC) of the strains to the active agents were determined by two-fold dilutions in Mueller-Hinton broth. […]

OC(c1c2cccc(Cl)c2cc2c(Cl)cccc12)C1CCCCN1 (stereo not drawn) [WR 218394, α-(2-PIPERIDYL)-4,5-DICHLORO-9-ANTHRACENEMETHANOL]
Effective Concentration S. Aureous (Resist).: 3.1 µg/mL
